In article PMC3914206:

How the values were obtained:
Assay type in all cases: binding
panel of 442 kinases [1] = target: T1, panel of 442 kinases (Homo sapiens, UniProt O75116); details: Compound Concentration 10 µM
T1 construct: purchased KINOMEscan
Description: (§1) We assessed the selectivity of members of this scaffold using the KINOMEscan methodology across a near comprehensive panel of 442 kinases [[18,27]].

panel of 442 kinases [2] = target: T2, panel of 442 kinases (Homo sapiens, UniProt Q05397); details: Compound Concentration 10 µM
T2 construct: purchased KINOMEscan
Description: as §1

panel of 442 kinases [3] = target: T3, panel of 442 kinases (Homo sapiens, UniProt P35590); details: kinase TIE1; compound concentration 10 µM
T3 construct: purchased KINOMEscan
Description: as §1

T1 sequence (O75116 whole entry): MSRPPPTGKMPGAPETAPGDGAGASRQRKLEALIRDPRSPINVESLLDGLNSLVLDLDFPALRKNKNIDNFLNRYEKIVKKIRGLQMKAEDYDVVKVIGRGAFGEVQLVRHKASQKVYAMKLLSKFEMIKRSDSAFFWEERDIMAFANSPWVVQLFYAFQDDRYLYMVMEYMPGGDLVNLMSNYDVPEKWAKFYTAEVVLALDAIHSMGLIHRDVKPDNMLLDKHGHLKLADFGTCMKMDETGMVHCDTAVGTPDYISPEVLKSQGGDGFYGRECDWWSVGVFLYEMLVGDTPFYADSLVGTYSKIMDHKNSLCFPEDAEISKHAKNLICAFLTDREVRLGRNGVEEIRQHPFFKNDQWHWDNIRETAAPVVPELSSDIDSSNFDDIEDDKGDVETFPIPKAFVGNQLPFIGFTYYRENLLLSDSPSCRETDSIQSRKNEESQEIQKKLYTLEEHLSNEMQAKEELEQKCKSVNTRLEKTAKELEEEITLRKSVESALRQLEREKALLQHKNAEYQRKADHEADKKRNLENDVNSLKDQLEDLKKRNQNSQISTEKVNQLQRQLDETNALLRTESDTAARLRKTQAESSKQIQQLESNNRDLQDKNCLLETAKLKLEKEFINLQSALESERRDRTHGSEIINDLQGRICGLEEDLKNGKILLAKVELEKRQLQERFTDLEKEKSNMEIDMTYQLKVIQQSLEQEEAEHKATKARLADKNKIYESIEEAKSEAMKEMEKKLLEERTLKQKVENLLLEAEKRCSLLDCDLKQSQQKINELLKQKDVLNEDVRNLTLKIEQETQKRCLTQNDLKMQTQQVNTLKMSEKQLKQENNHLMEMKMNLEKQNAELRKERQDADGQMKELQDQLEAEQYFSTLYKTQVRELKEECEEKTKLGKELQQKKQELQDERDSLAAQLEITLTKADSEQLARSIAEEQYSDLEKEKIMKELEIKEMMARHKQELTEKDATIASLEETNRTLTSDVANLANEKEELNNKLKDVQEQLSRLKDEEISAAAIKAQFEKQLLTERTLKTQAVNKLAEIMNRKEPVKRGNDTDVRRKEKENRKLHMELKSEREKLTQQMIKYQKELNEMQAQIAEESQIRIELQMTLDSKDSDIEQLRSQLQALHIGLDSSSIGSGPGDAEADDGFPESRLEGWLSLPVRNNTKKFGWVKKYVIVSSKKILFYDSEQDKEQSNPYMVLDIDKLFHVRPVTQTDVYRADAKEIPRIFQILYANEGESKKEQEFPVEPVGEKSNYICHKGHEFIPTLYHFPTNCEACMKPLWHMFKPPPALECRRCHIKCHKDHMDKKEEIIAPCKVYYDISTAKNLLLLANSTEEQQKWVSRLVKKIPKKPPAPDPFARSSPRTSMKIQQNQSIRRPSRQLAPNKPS
T2 sequence (Q05397 whole entry): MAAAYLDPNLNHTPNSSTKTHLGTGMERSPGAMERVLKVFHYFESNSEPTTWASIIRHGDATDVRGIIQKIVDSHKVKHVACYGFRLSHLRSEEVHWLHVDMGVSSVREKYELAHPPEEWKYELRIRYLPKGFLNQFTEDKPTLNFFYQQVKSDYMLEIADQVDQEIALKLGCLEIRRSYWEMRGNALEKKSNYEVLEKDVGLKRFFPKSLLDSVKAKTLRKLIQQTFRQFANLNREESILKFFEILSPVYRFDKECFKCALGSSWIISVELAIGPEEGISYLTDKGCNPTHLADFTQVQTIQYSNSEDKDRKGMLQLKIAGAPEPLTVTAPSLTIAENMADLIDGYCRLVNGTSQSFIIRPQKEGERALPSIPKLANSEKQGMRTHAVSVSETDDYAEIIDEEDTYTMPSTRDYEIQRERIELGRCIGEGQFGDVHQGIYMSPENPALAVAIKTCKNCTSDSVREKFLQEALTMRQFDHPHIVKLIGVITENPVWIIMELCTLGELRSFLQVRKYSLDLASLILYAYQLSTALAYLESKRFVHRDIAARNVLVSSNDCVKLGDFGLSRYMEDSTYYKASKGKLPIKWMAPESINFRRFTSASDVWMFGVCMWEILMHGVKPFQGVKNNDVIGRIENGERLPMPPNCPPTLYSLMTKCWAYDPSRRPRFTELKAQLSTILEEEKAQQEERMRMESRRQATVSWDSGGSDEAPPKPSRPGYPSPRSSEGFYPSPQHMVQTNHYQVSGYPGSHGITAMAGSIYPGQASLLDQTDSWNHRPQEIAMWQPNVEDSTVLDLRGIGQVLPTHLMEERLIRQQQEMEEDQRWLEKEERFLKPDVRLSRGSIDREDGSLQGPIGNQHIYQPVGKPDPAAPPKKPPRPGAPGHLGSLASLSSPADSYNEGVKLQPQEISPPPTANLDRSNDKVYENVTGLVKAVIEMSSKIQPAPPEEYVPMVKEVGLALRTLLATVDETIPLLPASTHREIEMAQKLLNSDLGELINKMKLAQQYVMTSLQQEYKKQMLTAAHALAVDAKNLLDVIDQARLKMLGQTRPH
T3 sequence (P35590 22-1138): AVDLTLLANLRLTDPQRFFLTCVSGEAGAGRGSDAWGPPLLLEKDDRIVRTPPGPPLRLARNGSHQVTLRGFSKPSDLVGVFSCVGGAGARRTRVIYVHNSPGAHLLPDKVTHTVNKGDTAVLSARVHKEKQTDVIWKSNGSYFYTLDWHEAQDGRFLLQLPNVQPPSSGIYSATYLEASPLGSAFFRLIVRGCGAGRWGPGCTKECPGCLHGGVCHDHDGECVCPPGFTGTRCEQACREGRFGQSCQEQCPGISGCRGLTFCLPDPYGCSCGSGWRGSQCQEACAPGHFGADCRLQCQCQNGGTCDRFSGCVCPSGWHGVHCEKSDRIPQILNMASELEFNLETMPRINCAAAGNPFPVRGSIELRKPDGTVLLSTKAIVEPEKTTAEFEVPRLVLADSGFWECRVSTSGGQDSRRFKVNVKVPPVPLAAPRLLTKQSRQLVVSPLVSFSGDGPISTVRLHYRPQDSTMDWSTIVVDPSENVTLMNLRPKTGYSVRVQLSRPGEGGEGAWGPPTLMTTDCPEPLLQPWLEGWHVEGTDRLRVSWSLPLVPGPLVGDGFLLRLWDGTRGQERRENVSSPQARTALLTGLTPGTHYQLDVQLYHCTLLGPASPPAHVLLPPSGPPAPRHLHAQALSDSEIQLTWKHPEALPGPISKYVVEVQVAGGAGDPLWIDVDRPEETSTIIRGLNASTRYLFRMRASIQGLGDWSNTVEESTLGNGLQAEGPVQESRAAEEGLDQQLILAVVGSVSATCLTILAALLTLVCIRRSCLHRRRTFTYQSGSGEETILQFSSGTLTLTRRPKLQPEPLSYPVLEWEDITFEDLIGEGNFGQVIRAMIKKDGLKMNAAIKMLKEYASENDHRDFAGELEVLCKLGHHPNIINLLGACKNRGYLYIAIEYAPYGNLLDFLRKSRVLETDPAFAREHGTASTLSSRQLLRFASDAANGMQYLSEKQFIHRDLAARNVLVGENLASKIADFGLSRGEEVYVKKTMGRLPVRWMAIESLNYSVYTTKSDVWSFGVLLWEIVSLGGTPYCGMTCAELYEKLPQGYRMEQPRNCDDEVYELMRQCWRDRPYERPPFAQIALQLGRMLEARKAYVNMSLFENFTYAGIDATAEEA

SMILES	KINOMEscan: ROCK2 (panel of 442 kinases [1])	KINOMEscan: FAK (panel of 442 kinases [2])	% Ctrl, TIE1 (panel of 442 kinases [3]) [% Ctrl]
CCOc1cc(C(=O)N2CCC(N3CCN(C)CC3)CC2)ccc1Nc1ncc2c(n1)N(C1CCCC1)c1ccccc1C(=O)N2C [Compound 26]	83	57	100
COc1cc(C(=O)N2CCC(N3CCN(C)CC3)CC2)ccc1Nc1ncc2c(n1)N(C1CCCC1)c1ccccc1C(=O)N2C [Compound 25, 11-cyclopentyl-2-((2-methoxy-4-(4-(4-methylpiperazin-1-yl)piperidine-1-carbonyl)phenyl)amino)-5-methyl-5H-benzo[e]pyrimido[5,4-b][1,4]diazepin-6(11H)-one]	79	19	100
COc1cc(C(=O)N2CCC(N3CCN(C)CC3)CC2)ccc1Nc1ncc2c(n1)N1CCc3cccc(c31)C(=O)N2C [Compound 24]	65	–	70
COc1cc(C(=O)N2CCC(N3CCN(C)CC3)CC2)ccc1Nc1ncc2c(n1)N(C)c1ccccc1C(=O)N2C [15 (LRRK2-IN-1)]	87	34	100
